Laboratory results as given in ChEMBL document CHEMBL5126529, “Drug discovery of histone lysine demethylases (KDMs) inhibitors (progress from 2018 to present)” (Eur J Med Chem, 2022).
Values belong to the molecule of their own block, whether it stands above or below them.

Tests used:
[1] = biological target: T1, Amine oxidase [flavin-containing] A (Homo sapiens, UniProt P21397); assay: Inhibition of MAO-A (unknown origin) by luminescence based assay
T1 sequence (P21397 whole entry): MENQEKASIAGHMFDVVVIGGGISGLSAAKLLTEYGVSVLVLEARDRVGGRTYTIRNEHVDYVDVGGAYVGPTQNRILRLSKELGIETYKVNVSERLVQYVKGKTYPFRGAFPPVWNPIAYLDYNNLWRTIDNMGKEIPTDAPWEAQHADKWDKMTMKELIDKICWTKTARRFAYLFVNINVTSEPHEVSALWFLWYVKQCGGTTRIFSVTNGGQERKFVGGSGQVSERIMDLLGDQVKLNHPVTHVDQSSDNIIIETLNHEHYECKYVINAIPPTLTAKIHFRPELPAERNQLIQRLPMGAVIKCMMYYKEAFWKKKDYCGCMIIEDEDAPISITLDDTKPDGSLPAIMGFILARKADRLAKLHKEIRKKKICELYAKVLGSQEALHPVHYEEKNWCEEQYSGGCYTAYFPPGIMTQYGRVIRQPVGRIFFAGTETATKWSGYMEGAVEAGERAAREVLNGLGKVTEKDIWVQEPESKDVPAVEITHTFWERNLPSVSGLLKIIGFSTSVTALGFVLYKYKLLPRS

[2] = biological target: T2, Amine oxidase [flavin-containing] B (Homo sapiens, UniProt P27338); assay: Inhibition of MAO-B (unknown origin) by luminescence based assay
T2 sequence (P27338 whole entry): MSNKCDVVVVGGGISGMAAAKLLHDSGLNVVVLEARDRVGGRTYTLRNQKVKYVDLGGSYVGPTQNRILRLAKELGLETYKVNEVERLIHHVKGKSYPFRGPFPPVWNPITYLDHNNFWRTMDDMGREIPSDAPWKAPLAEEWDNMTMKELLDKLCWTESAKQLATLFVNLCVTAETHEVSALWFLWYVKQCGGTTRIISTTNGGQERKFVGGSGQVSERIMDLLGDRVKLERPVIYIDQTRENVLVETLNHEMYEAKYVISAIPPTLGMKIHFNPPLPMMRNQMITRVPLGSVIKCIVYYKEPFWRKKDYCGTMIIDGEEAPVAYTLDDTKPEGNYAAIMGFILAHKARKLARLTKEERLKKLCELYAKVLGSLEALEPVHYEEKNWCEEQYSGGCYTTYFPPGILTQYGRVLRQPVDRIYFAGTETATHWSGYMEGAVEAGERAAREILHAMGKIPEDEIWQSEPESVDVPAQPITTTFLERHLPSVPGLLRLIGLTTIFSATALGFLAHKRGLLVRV

[3] = biological target: T3, Lysine-specific histone demethylase 1A (Homo sapiens, UniProt O60341); assay: Inhibition of recombinant human KMD1A (172 to 852 residues) using Bio-H3K4me2 peptide as substrate incubated for 1 hr by Lance ultra TR-FRET assay
[4] = biological target: T3, Lysine-specific histone demethylase 1A
[5] = biological target: Probable JmjC domain-containing histone demethylation protein 2C (Homo sapiens, UniProt Q15652); assay: Binding affinity to CM7 sensor chip immobilized partial-length JMJD1C (2274 to 2498 residues) (unknown origin) expressed in Escherichia coli assessed as dissociation constant incubated for 60 secs by SPR analysis
Chain of Probable JmjC domain-containing histone demethylation protein 2C (Q15652 whole entry, the tested form may be a part): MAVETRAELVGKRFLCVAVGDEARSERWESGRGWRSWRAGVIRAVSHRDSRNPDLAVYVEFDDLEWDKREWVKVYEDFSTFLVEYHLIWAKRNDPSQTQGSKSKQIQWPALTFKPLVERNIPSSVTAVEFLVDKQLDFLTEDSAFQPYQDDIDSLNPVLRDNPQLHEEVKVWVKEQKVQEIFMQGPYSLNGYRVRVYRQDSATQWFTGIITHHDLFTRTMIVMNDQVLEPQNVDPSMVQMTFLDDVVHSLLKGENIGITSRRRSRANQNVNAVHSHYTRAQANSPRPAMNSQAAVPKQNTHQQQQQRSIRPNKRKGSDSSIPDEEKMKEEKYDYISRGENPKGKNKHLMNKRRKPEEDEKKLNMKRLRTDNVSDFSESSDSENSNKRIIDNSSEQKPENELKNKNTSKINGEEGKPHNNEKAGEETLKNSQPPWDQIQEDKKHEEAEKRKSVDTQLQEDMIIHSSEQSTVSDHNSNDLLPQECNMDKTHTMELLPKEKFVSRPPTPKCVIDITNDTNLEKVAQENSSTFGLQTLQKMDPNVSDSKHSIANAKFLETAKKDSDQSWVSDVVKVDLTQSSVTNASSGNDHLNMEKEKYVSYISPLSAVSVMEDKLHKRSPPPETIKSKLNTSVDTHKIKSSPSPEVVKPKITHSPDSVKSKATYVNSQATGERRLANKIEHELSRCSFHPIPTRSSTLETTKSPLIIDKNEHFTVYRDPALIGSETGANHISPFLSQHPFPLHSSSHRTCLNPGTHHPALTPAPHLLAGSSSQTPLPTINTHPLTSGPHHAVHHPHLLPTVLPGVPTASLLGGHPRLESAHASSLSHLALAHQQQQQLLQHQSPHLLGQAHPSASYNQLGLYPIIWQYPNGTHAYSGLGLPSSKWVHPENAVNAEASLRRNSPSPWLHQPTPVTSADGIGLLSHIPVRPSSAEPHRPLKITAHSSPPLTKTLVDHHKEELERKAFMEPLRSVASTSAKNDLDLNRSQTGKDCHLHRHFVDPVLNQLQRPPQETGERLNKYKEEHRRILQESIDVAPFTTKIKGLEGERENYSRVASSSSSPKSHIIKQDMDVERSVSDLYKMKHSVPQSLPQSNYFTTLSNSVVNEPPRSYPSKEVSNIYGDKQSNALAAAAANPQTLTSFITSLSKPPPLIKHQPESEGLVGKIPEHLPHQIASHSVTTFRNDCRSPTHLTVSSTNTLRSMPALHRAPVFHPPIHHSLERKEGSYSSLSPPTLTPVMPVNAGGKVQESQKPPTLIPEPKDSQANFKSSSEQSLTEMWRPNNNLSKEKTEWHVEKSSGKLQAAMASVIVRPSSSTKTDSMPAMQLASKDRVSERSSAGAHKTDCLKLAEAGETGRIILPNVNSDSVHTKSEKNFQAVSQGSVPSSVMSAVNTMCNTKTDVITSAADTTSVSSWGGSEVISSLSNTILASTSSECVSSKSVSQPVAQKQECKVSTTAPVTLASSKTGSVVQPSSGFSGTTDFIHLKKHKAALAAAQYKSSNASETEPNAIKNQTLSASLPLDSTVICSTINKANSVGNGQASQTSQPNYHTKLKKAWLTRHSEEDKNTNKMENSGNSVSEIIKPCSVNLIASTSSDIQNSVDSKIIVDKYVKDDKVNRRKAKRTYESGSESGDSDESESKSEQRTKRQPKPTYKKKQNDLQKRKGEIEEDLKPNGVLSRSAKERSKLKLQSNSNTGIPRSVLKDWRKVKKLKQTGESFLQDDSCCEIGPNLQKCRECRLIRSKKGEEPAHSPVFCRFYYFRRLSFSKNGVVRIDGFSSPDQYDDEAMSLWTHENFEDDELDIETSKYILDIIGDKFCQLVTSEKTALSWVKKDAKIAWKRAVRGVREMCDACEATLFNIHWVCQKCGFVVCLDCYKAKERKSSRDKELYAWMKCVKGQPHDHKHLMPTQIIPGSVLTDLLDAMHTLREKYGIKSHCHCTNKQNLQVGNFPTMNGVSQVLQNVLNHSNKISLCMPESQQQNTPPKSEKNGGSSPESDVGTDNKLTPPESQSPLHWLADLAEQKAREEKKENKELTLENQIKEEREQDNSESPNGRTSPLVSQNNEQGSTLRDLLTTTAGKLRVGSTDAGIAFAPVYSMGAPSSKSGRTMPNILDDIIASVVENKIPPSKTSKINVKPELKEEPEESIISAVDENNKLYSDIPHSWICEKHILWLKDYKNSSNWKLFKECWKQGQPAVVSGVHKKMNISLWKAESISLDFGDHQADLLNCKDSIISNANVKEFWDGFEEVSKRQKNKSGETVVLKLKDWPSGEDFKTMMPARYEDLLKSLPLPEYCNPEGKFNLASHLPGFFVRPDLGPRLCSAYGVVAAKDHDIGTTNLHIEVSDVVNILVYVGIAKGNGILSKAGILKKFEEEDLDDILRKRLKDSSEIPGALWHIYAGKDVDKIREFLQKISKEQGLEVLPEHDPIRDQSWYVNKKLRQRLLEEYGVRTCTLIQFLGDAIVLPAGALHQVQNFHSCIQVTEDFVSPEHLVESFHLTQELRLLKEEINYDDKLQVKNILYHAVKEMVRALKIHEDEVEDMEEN

[6] = biological target: Lysine-specific demethylase 3B (Homo sapiens, UniProt Q7LBC6); assay: Binding affinity to CM7 sensor chip immobilized full-length KDM3B (unknown origin) expressed in Sf9 insect cells assessed as dissociation constant incubated for 60 secs by SPR analysis
Chain of Lysine-specific demethylase 3B (Q7LBC6 whole entry): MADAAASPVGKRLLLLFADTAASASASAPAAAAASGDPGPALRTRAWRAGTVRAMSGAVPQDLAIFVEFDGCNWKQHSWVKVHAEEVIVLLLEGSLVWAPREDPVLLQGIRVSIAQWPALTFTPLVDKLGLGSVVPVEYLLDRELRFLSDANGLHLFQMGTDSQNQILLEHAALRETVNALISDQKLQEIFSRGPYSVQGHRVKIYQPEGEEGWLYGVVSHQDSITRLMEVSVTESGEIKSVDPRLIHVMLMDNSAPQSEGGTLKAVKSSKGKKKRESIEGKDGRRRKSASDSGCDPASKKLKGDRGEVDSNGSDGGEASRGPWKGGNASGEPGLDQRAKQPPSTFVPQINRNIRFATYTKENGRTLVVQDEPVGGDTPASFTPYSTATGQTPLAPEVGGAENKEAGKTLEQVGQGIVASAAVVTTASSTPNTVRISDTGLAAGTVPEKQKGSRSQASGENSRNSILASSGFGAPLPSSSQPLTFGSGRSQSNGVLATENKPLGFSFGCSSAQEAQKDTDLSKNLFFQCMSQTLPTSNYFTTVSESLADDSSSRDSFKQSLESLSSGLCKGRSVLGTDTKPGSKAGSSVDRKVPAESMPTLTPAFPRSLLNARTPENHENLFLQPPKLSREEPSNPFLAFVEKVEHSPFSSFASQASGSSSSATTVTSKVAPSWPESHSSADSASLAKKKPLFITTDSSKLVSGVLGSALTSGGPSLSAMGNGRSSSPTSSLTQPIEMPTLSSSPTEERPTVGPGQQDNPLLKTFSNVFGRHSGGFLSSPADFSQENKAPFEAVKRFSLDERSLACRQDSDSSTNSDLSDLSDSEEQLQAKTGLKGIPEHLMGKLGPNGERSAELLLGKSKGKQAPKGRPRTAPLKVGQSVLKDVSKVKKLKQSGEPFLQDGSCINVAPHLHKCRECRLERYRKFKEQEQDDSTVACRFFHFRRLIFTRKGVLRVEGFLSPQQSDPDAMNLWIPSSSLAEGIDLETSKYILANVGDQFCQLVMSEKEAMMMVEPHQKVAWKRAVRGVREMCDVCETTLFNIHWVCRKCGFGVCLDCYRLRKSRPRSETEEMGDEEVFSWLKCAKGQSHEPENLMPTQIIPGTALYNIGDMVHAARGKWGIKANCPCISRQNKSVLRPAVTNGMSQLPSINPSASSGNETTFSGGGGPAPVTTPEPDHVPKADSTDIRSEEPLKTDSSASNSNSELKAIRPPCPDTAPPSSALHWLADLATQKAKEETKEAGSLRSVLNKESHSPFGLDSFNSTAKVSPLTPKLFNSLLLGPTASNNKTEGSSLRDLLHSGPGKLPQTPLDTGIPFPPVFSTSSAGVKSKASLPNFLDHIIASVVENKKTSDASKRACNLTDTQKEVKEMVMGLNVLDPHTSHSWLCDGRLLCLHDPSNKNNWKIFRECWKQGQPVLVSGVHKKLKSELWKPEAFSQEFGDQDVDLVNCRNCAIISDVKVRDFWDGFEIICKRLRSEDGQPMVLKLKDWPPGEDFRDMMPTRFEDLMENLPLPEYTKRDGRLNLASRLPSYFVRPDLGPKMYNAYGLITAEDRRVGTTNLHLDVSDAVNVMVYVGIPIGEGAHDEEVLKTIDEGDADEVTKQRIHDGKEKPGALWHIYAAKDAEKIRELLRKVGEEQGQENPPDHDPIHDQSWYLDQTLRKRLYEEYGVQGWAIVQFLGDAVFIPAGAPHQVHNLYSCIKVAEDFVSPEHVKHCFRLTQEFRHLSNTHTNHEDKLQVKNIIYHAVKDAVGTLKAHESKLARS

[7] = biological target: T4, MAO-A (Homo sapiens, UniProt P21397); assay: Inhibition of MAO-A (unknown origin) at 10 uM relative to control
T4 sequence (P21397 whole entry): T1 sequence (P21397 whole entry)

[8] = biological target: T5, MAO-B (Homo sapiens, UniProt P27338); assay: Inhibition of MAO-B (unknown origin) at 10 uM relative to control
T5 sequence (P27338 whole entry): T2 sequence (P27338 whole entry)

[9] = biological target: Lysine-specific demethylase 5C (Homo sapiens, UniProt P41229); assay: Inhibition of N-terminal FLAG/His-tagged full-length human KDM5C (2 to 1560 residues) expressed in baculovirus infected Sf9 insect cells using peptide substrate at 10 uM incubated for 2 hrs by Alpha Screen assay relative to control
[10] = biological target: T2, Amine oxidase [flavin-containing] B
[11] = biological target: T3, Lysine-specific histone demethylase 1A; assay: Binding affinity to human KDM1A (172 to 833 residues) assessed as inhibition constant using Lys4-dimethylated H3 peptide as substrate incubated for 30 mins by enzymatic assay
[12] = biological target: Lysine-specific histone demethylase 2 (Homo sapiens, UniProt Q8NB78); assay: Binding affinity to KDM1B (unknown origin) assessed as inhibition constant using Lys4-dimethylated H3 peptide as substrate incubated for 30 mins by enzymatic assay
Chain of Lysine-specific histone demethylase 2 (Q8NB78 whole entry): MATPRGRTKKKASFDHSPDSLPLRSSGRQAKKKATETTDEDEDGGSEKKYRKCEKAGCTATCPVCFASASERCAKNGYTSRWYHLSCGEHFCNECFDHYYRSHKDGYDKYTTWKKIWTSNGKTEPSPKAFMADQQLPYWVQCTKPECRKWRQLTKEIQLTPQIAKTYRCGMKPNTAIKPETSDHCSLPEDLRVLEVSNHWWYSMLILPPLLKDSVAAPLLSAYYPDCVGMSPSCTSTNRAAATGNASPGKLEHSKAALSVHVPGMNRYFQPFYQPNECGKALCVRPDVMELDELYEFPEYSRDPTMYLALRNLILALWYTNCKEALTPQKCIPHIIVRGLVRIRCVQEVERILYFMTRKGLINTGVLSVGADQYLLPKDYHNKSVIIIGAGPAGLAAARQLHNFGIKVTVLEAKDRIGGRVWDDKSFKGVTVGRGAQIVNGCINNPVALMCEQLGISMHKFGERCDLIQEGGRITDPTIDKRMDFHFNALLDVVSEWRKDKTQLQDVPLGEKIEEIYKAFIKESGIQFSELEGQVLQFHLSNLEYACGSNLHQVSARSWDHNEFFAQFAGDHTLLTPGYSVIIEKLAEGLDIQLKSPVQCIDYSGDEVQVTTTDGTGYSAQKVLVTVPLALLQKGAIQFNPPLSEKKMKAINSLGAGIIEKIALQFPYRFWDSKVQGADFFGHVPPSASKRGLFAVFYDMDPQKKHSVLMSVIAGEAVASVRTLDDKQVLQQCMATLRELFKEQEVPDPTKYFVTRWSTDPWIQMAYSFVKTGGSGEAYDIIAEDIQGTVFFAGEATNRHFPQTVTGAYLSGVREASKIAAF

[13] = biological target: T1, Amine oxidase [flavin-containing] A; assay: Binding affinity to human MAO-A assessed as inhibition constant using tyramine as substrate incubated for 30 mins by enzymatic assay
[14] = biological target: T2, Amine oxidase [flavin-containing] B; assay: Binding affinity to human MAO-B assessed as inhibition constant using tyramine as substrate incubated for 30 mins by enzymatic assay
[15] = biological target: T1, Amine oxidase [flavin-containing] A; assay: Inhibition of MAO-A (unknown origin) by luminometry
[16] = system: HAL-01; assay: cells; conditions: Homo sapiens
[17] = system: KE-37; assay: cells; conditions: Homo sapiens
[18] = system: P30-OHK; assay: cells; conditions: Homo sapiens
[19] = system: SUP-B15; assay: cells; conditions: Homo sapiens
[20] = system: MOLT-4; assay: cells; conditions: Homo sapiens
[21] = system: LC4-1; assay: cells; conditions: Homo sapiens
[22] = biological target: T3, Lysine-specific histone demethylase 1A; assay: Inhibition of KDM1A (unknown origin) by fluorescence based assay
[23] = biological target: T3, Lysine-specific histone demethylase 1A; remark: listed apart in the source
[24] = biological target: Lysine-specific demethylase 6B (Homo sapiens, UniProt O15054); assay: Binding affinity to KDM6B (unknown origin) assessed as inhibition constant

IC50 [1]: 0.00729 µM
IC50 [2]: 9.41 µM
IC50 [3]: 4.8 µM
Structure (SMILES): CC1(C)C(N[C@@H]2C[C@H]2c2ccccc2)CCC1N[C@@H]1C[C@H]1c1ccccc1 (stereo partly specified)

IC50 [4]: 0.296 µM
Structure (SMILES): CCOC(=O)C(c1cc(OC)c(OC)cc1O)N1CCOCC1 (stereo unspecified)

Kd [5]: 26.7 µM
Kd [6]: 16.3 µM
Structure (SMILES): CC(=O)Nc1ccc(S(=O)(=O)N[C@H]2CO[C@H]3[C@@H]2OC[C@@H]3Nc2nccc(-c3cccc(F)c3)n2)cc1

inhibition at 10 µM [7]: 23.5%
inhibition at 10 µM [8]: 36.8%
Structure (SMILES): COc1ccc(-c2coc3cc(O)cc(O)c3c2=O)cc1 [BIOCHANIN]

inhibition [9]: 14%
Structure (SMILES): COC(=O)c1ccnc(-c2cn(CCN(C)CCCCCCCCCCOc3cccc4c3C(=O)N(C3CCC(=O)NC3=O)C4=O)nn2)c1 (stereo unspecified)

Kd [5]: 8.06 µM
Kd [6]: 7.79 µM
Structure (SMILES): CC(=O)Nc1ccc(S(=O)(=O)N[C@H]2CO[C@H]3[C@@H]2OC[C@@H]3Nc2nccc(-c3cccc(C(C)(C)C)c3)n2)cc1

IC50 [10]: > 200 µM
Structure (SMILES): O=C(c1ccc(OCCN2CCCCC2)cc1)c1c(-c2ccc(O)cc2)sc2cc(O)ccc12 [RALOXIFENE]

Ki [11]: 0.37 µM
Ki [12]: > 250 µM
Ki [13]: > 250 µM
Ki [14]: > 250 µM
Structure (SMILES): CN1CCN(C(=O)NC2CC2c2cc(F)cc(F)c2OCc2ccccc2)CC1 (stereo unspecified)

IC50 [15]: 20 µM
IC50 [16]: 1.1 µM
IC50 [17]: 3.64 µM
IC50 [18]: 3.85 µM
IC50 [19]: 1.87 µM
IC50 [20]: 0.87 µM
IC50 [21]: 2.73 µM
Structure (SMILES): CC(C)(C)OC(=O)N1CCN(C(=S)SCC(=O)Nc2ccc(C(=O)/C=C/c3ccccc3F)cc2)CC1

IC50 [22]: 3.97 µM
Structure (SMILES): C=C[C@]1(C)C[C@@H]2OC(=O)C(C)=C2C[C@H]1C(=C)C [ISOGERMAFURENOLIDE]

Structure (SMILES): CSCC[C@H](NC(=O)[C@@H](NC(=O)[C@H](CCCNC(=N)N)NC(=O)[C@H](C)N)[C@@H](C)O)C(=O)N[C@@H](CCC(N)=O)C(=O)N[C@H](C(=O)N[C@@H](C)C(=O)N[C@@H](CCCNC(=N)N)C(=O)N[C@@H](CCCCN)C(=O)N[C@@H](CO)C(=O)N[C@H](C(=O)O)[C@@H](C)O)[C@@H](C)O
Kd [23]: 140 µM

Ki [24]: 7.46 µM
Structure (SMILES): O=c1c(-c2ccc(O)cc2)coc2c([C@@H]3O[C@H](CO[C@@H]4OC[C@@H](O)[C@H](O)[C@H]4O)[C@@H](O)[C@H](O)[C@H]3O)c(O)ccc12
